Results taken from patent US8293734B2, “Nitroimidazooxazine and nitroimidazooxazole analogues and their uses” (priority 2009, dated 2012).
Converted amounts (≈) assume the structure as drawn. Read-outs that look alike come from different tables or passages of the source.

Legend:
VERO cells (CCL-81) = test: Mammalian cell cytotoxicity assay (tetrazolium dye); format: cell-based; conditions: Chlorocebus sabaeus, read-out: IC50 VERO
Procedure: (b) Mammalian cell cytotoxicity assay. This was assessed against VERO cells (CCL-81, American Type Culture Collection) in a 72 h exposure, using a tetrazolium dye assay (Falzari et al., 2005).

[1] = test system: Axenically grown L. donovani amastigotes (MHOM-ET-67/L82); test: Axenic Leishmania donovani assay; format: cell-based; conditions: 70 h incubation, read-out: IC50 L. donovani axen
Procedure: (§1) (c) Antiprotozoal screening. Compounds were evaluated for their activities against both Trypanosoma cruzi amastigotes and Leishmania donovani amastigotes (free or encapsulated in macrophages), according to the following protocols:
(ii) Axenic Leishmania donovani assay. Axenically grown L. donovani amastigotes (MHOM-ET-67/L82) from a healthy culture in log phase were seeded at a density of 1×10^6/mL medium (SM, pH 5.4 plus 10% heat inactivated fetal calf serum) in 96-well microtitre plates (Costar™) and incubated at 37° C. (5% CO2) for 70 h in either medium alone or in the presence of serial (3-fold) dilutions of test compounds (initially prepared as 10 mg/mL stock solutions in DMSO and diluted into medium). Miltefosin was employed as a standard in each assay. After incubation, Resazurin fluorescent dye was added to each well, and incubation was continued for an additional 2 h. The IC50 values were determined from measurements of the fluorescence data.

[2] = test system: replicating Mycobacterium tuberculosis; test: MABA microplate Alamar blue assay, MIC (aerobic); format: cell-based; conditions: 192 h
[3] = test system: Trypanosoma cruzi amastigotes (Tulahuen C2C4 strain); test: Trypanosoma cruzi assay in infected L-6 cells; format: cell-based; conditions: L6, 96 h incubation, read-out: IC50 T. cruzi
Procedure: as §1
(i) Trypanosoma cruzi assay. L-6 cells (2×10^3) in medium (100 μL of RPMI 1640 supplemented with 2 mM L-glutamine plus 10% heat inactivated fetal calf serum) were seeded in 96-well microtitre plates (Costar™) and incubated at 37° C. (5% CO2) for 1d. A suspension (50 μL) of Trypanosoma cruzi trypomastigotes (5×10^3 of Tulahuen C2C4 strain, containing the β-galactosidase gene) was added, and the cells were incubated at 37° C. (5% CO2) for a further 48 h to establish the infection. The medium was removed and replaced by fresh medium and the infected cells were then incubated at 37° C. (5% CO2) for 96 h in either medium alone or in the presence of serial (3-fold) dilutions of test compounds (initially prepared as 10 mg/mL stock solutions in DMSO and diluted into medium). Benznidazole was employed as a standard in each assay. Following incubation, chlorophenol red glycoside (100 mM) in 0.1% Nonidet P40/PBS (50 μL) was added, and (after 6 h) the absorbance at 540 nm was measured and used to calculate the IC50 values.

[4] = test system: L. donovani amastigotes (MHOM-ET-67/L82) in mouse macrophages; test: Leishmania donovani infected macrophage assay; format: cell-based; conditions: 96 h incubation, read-out: IC50 L. donovani macro
Procedure: as §1
(iii) Leishmania donovani infected macrophage assay. Freshly harvested mouse macrophages in medium (RPMI 1640 plus 10% heat inactivated fetal calf serum) were incubated at 37° C. (5% CO2) for 24 h and then infected (1:3 macrophages to amastigotes) with an axenic L. donovani amastigote culture (MHOM-ET-67/L82) in medium (SM, pH 5.4 plus 10% heat inactivated fetal calf serum). The infected macrophages were seeded at a density of 1.2×10^6/mL (by diluting in RPMI+10% FCS) in 16-well slides (Lab-tek™) and incubated at 37° C. (5% CO2) for 24 h. The medium was removed and replaced by fresh medium (RPMI 1640+10% FCS), and this was repeated following mixing. The infected macrophages were then incubated at 37° C. (5% CO2) for 96 h in either medium alone or in the presence of serial (3-fold) dilutions of test compounds (initially prepared as 10 mg/mL stock solutions in DMSO and diluted into medium). Miltefosin was employed as a standard in each assay. […], the slides were fixed (5 min in 100% MeOH) and stained (10% Giemsa, 10 min). The ratio of infected to uninfected macrophages was determined by microscopic examination, and the IC50 values were then calculated by linear regression analysis.

Row | SMILES | melting point | other results
1 | O=[N+]([O-])c1cn2c(n1)OCC(COc1ccc(-c3ccc(F)cc3)cn1)C2 (centres unmarked) | 160 to 161 °C | 
2 | O=[N+]([O-])c1cn2c(n1)OCC(COc1ccc(-c3ccc(C(F)(F)F)cc3)cn1)C2 (centres unmarked) | 180 to 182 °C | 
3 | O=[N+]([O-])c1cn2c(n1)OCC(COc1ccc(-c3ccc(C(F)(F)F)cc3)cc1)C2 (centres unmarked) | 218 to 221 °C | 
4 | O=[N+]([O-])c1cn2c(n1)OC(COc1ccc(-c3ccc(F)cc3)cc1)C2 (centres unmarked) | 224 to 226 °C | 
5 | CC1(COc2cnc(-c3ccc(OC(F)(F)F)cc3)cn2)Cn2cc([N+](=O)[O-])nc2O1 (centres unmarked) | 222 to 224 °C | 
6 | CC1(COc2ccc(-c3ccc(OC(F)(F)F)cc3)cn2)CCn2cc([N+](=O)[O-])nc2O1 (centres unmarked) | 195 to 198 °C | 
7 | O=[N+]([O-])c1cn2c(n1)OCC(COc1ccc(-c3ccc(OC(F)(F)F)cc3)cn1)C2 (centres unmarked) | 182 to 183 °C | 
8 | CC1(COCc2ccc(OC(F)(F)F)cc2)CCn2cc([N+](=O)[O-])nc2O1 (centres unmarked) | 100 to 101 °C | 
9 | CC1(COc2ccc(-c3ccc(OC(F)(F)F)cc3)nc2)Cn2cc([N+](=O)[O-])nc2O1 (centres unmarked) | 209 to 211 °C | 
10 | O=[N+]([O-])c1cn2c(n1)OC(COc1ccc(OCc3ccccc3)cc1)CC2 (centres unmarked) (hydrate or solvate) | 222 to 224 °C | 
11 | O=[N+]([O-])c1cn2c(n1)OC(COc1ccc(-c3ccc(C(F)(F)F)cc3)cc1)C2 (centres unmarked) | 210 to 211 °C | 
12 | CC1(COc2ncc(-c3ccc(F)cc3)cn2)Cn2cc([N+](=O)[O-])nc2O1 (centres unmarked) | 196 °C (dec.) | 
13 | CC1(COc2ccc(-c3ccc(F)cc3)cc2)Cn2cc([N+](=O)[O-])nc2O1 (centres unmarked) [Compound 10, 2-{[(4′-fluoro[1,1′-biphenyl]-4-yl)oxy]methyl}-2-methyl-6-nitro-2,3-dihydroimidazo[2,1-b][1,3]oxazole] | 180 to 181 °C | IC50 (VERO cells (CCL-81); 72 h exposure): > 128 µM; IC50 [1]: 0.04 µg/mL (≈ 0.108 µM); MIC [2]: 0.045 µM (≈ 0.0166 µg/mL); IC50 [3]: 2 µg/mL (≈ 5.41 µM); IC50 [4]: 0.23 µg/mL (≈ 0.623 µM)
14 | CC1(COc2ccc(OCc3ccccc3)cc2)CCn2cc([N+](=O)[O-])nc2O1 (centres unmarked) | 174 to 176 °C | 
15 | O=[N+]([O-])c1cn2c(n1)OC(COc1ccc(OCc3ccccc3)cc1)C2 (centres unmarked) | 208 to 210 °C | 
16 | CC1(COc2ccc(-c3ccc(OC(F)(F)F)cc3)cn2)Cn2cc([N+](=O)[O-])nc2O1 (centres unmarked) | 172 to 174 °C | 
17 | O=[N+]([O-])c1cn2c(n1)OCC(COc1ccc(-c3ccc(F)cc3)cc1)C2 (centres unmarked) | 201 to 203 °C | 
18 | O=[N+]([O-])c1cn2c(n1)OCC(COCc1ccc(OCc3ccccc3)cc1)C2 (centres unmarked) [Compound 73, 6-({[4-(benzyloxy)benzyl]oxy}methyl)-2-nitro-6,7-dihydro-5H-imidazo[2,1-b][1,3]oxazine] | 150 to 151 °C | IC50 (VERO cells (CCL-81); 72 h exposure): 113 µM; IC50 [1]: 0.16 µg/mL (≈ 0.405 µM); IC50 [3]: 2.8 µg/mL (≈ 7.08 µM); IC50 [4]: 0.53 µg/mL (≈ 1.34 µM)
19 | O=[N+]([O-])c1cn2c(n1)OC(COc1ccc(OC(F)(F)F)cc1)C2 (centres unmarked) | 170 to 172 °C | 
20 | CC1(COc2ccc(-c3ccc(C(F)(F)F)cc3)cc2)Cn2cc([N+](=O)[O-])nc2O1 (centres unmarked) [Compound 11, 2-methyl-6-nitro-2-({[4′-(trifluoromethyl)[1,1′-biphenyl]-4-yl]oxy}methyl)-2,3-dihydroimidazo[2,1-b][1,3]oxazole] | 219 to 220 °C | IC50 (VERO cells (CCL-81); 72 h): > 128 µM; IC50 [1]: 0.028 µg/mL (≈ 0.0668 µM); MIC [2]: 0.08 µM (≈ 0.0335 µg/mL); IC50 [3]: 18 µg/mL (≈ 42.9 µM); IC50 [4]: 0.47 µg/mL (≈ 1.12 µM)
21 | CC1(COc2cnc(-c3ccc(F)cc3)nc2)Cn2cc([N+](=O)[O-])nc2O1 (centres unmarked) | 201 to 203 °C | 
22 | CC1(COc2ccc(-c3ccc(F)cc3)nc2)Cn2cc([N+](=O)[O-])nc2O1 (centres unmarked) | 180 to 181 °C | 
23 | O=[N+]([O-])c1cn2c(n1)OC(COc1ccc(-c3ccc(OC(F)(F)F)cc3)cc1)C2 (centres unmarked) | 200 to 201 °C | 
24 | O=[N+]([O-])c1cn2c(n1)OC(COc1ccc(-c3ccc(OC(F)(F)F)cc3)cn1)C2 (centres unmarked) | 127 to 130 °C | 

Row | SMILES | melting point | other results
25 | O=[N+]([O-])c1cn2c(n1)OC[C@@H](COc1ccc(OC(F)(F)F)cc1)C2 | 138 to 139 °C | 
26 | CC1(COc2ccc(-c3ccc(C(F)(F)F)cc3)cn2)CCn2cc([N+](=O)[O-])nc2O1 (centres unmarked) | 212 to 214 °C | 
27 | O=[N+]([O-])c1cn2c(n1)OC(COc1ccc(-c3ccc(C(F)(F)F)cc3)cc1)CC2 (centres unmarked) | 242 to 245 °C | 
28 | CC1(COCc2cccc(-c3ccc(OC(F)(F)F)cc3)c2)CCn2cc([N+](=O)[O-])nc2O1 (centres unmarked) | 80 to 82 °C | 
29 | O=[N+]([O-])c1cn2c(n1)OC(COCc1ccc(OCc3ccccc3)cc1)C2 (centres unmarked) | 123 to 124 °C | 
30 | CC1(COc2ccc(-c3ccc(C(F)(F)F)cc3)nc2)CCn2cc([N+](=O)[O-])nc2O1 (centres unmarked) | 215 to 217 °C | 
31 | O=[N+]([O-])c1cn2c(n1)OC(COCc1ccc(OC(F)(F)F)cc1)C2 (centres unmarked) | 134 to 135 °C | 
32 | O=[N+]([O-])c1cn2c(n1)OCC(COc1ccc(-c3ccc(C(F)(F)F)cc3)nc1)C2 (centres unmarked) | 233 to 235 °C | 
33 | CC1(COCc2cccc(OC(F)(F)F)c2)CCn2cc([N+](=O)[O-])nc2O1 (centres unmarked) | 108 to 110 °C | 
34 | O=[N+]([O-])c1cn2c(n1)OCC(COc1ccc(-c3ccc(OC(F)(F)F)cc3)nc1)C2 (centres unmarked) | 180 to 181 °C | 
35 | O=[N+]([O-])c1cn2c(n1)OCC(COc1ccc(-c3ccc(F)cc3)nc1)C2 (centres unmarked) | 214 to 216 °C | 
36 | O=[N+]([O-])c1cn2c(n1)OCC(COc1ccc(OC(F)(F)F)cc1)C2 (racemic) | 141 to 143 °C | 
37 | O=[N+]([O-])c1cn2c(n1)OC(COCc1ccc(OCc3ccccc3)cc1)CC2 (centres unmarked) [Compound 49, 7-({[4-(benzyloxy)benzyl]oxy}methyl)-2-nitro-6,7-dihydro-5H-imidazo[2,1-b][1,3]oxazine] | 151 to 153 °C | IC50 (VERO cells (CCL-81); 72 h exposure): > 128 µM; IC50 [1]: 0.048 µg/mL (≈ 0.121 µM); IC50 [3]: 0.55 µg/mL (≈ 1.39 µM); IC50 [4]: 0.065 µg/mL (≈ 0.164 µM)
38 | CC1(COc2cnc(-c3ccc(F)cc3)cn2)Cn2cc([N+](=O)[O-])nc2O1 (centres unmarked) | 200 to 201 °C | 
39 | CC1(COc2ccc(-c3ccc(C(F)(F)F)cc3)cc2)CCn2cc([N+](=O)[O-])nc2O1 (centres unmarked) | 196 to 198 °C | 
40 | CC1(COc2ccc(-c3ccc(F)cc3)cc2)CCn2cc([N+](=O)[O-])nc2O1 (centres unmarked) | 160 to 162 °C | 
41 | O=[N+]([O-])c1cn2c(n1)OCC(COc1ccc(-c3ccc(OC(F)(F)F)cc3)cc1)C2 (centres unmarked) | 192 to 194 °C | 
42 | CC1(COc2ccc(-c3ccc(F)cc3)cn2)Cn2cc([N+](=O)[O-])nc2O1 (centres unmarked) | 162 to 164 °C | 
43 | CC1(COc2ncc(-c3ccc(OC(F)(F)F)cc3)cn2)Cn2cc([N+](=O)[O-])nc2O1 (centres unmarked) | 227 °C (dec.) | 
44 | O=[N+]([O-])c1cn2c(n1)OC[C@H](COc1ccc(OC(F)(F)F)cc1)C2 | 139 to 140 °C | 
45 | O=[N+]([O-])c1cn2c(n1)OC(COc1ccc(-c3ccc(OC(F)(F)F)cc3)cn1)CC2 (centres unmarked) | 161 to 163 °C | 
46 | CC1(COc2cnc(-c3ccc(OC(F)(F)F)cc3)nc2)Cn2cc([N+](=O)[O-])nc2O1 (centres unmarked) | 223 to 225 °C | 
47 | CC1(COc2ccc(-c3ccc(OC(F)(F)F)cc3)nc2)CCn2cc([N+](=O)[O-])nc2O1 (centres unmarked) | 202 to 203 °C | 
